pIC50: −log10 of the molar value.
Key:
[1] = molecular target: T1, Mitogen-activated protein kinase 10 (Homo sapiens, UniProt P53779); test: Inhibition of recombinant JNK3 after 60 mins by TR-FRET assay
[2] = molecular target: Mitogen-activated protein kinase 9 (Homo sapiens, UniProt P45984); test: Inhibition of recombinant JNK2 after 60 mins by TR-FRET assay
[3] = molecular target: Mitogen-activated protein kinase 8 (Homo sapiens, UniProt P45983); test: Inhibition of recombinant JNK1 after 60 mins by TR-FRET assay
[4] = molecular target: Mitogen-activated protein kinase 14 (Homo sapiens, UniProt Q16539); test: Inhibition of recombinant p38alpha after 60 mins by TR-FRET assay
[5] = molecular target: T2, Mitogen-activated protein kinase 1 (Homo sapiens, UniProt P28482); test: Inhibition of recombinant ERK2 after 60 mins by TR-FRET assay
MDR1 [6] = test: Apparent permeability of the compound from apical to basolateral direction in MDCK2 cells expressing MDR1; assay type: ADME, cell-based, Canis lupus familiaris, MDCK-II; settings: dog, MDCK-MDR1
MDR1 [7] = test: Efflux ratio of permeability from basolateral to apical side over apical to basolateral side in MDCK2 cells expressing MDR1; assay type: ADME, cell-based, Canis lupus familiaris, MDCK-II; settings: dog, MDCK-MDR1
[8] = Oxidative metabolic stability in mouse liver microsomes assessed as compound remaining at 5 uM after 120 mins; assay type: ADME, Microsome; settings: read-out: Stability
[9] = Oxidative metabolic stability in human liver microsomes assessed as compound remaining at 5 uM after 120 mins; assay type: ADME, Microsome; settings: read-out: Stability
Mus musculus = test: Inhibition of kainic acid-induced JNK activation in FVB mouse hippocampus assessed as reduction of phosphorylated c-jun level at 300 mg/kg, po administered 1 hr before kainic acid challenge measured after 4 hrs; assay type: functional
[10] = molecular target: Cyclin-dependent kinase 5/CDK5 activator 1 (Homo sapiens) (UniProt Q00535+Q15078); test: Inhibition of CDK5/p25 at 10 uM; assay type: protein-complex assay
[11] = molecular target: Cyclin-dependent kinase 2/cyclin A (Homo sapiens) (UniProt P24941+P20248+P78396); test: Inhibition of CDK2/cyclin A at 10 uM; assay type: protein-complex assay
[12] = molecular target: Cyclin-dependent kinase 1/cyclin B (Homo sapiens) (UniProt P06493+P14635+Q8WWL7+O95067); test: Inhibition of CDK1/cyclin B at 10 uM; assay type: protein-complex assay
[13] = molecular target: Calcium/calmodulin-dependent protein kinase type II subunit alpha (Homo sapiens) (UniProt Q9UQM7); test: Inhibition of CAMK2A at 10 uM
[14] = molecular target: Aurora kinase A (Homo sapiens) (UniProt O14965); test: Inhibition of Aurora A at 10 uM
[15] = molecular target: RAC-alpha serine/threonine-protein kinase (Homo sapiens) (UniProt P31749); test: Inhibition of AKT1 at 10 uM
[16] = molecular target: Tyrosine-protein kinase ABL1 (Homo sapiens) (UniProt P00519); test: Inhibition of ABL1 at 10 uM
[17] = molecular target: Serine/threonine-protein kinase Chk1 (Homo sapiens) (UniProt O14757); test: Inhibition of CHEK1 at 10 uM
[18] = molecular target: Dual specificity protein kinase CLK1 (Homo sapiens) (UniProt P49759); test: Inhibition of CLK1 at 10 uM
[19] = molecular target: Macrophage colony-stimulating factor 1 receptor (Homo sapiens) (UniProt P07333); test: Inhibition of CSF1R at 10 uM
[20] = molecular target: Dual specificity tyrosine-phosphorylation-regulated kinase 1B (Homo sapiens) (UniProt Q9Y463); test: Inhibition of DYRK1B at 10 uM
[21] = molecular target: Receptor tyrosine-protein kinase erbB-4 (Homo sapiens) (UniProt Q15303); test: Inhibition of ERBB4 at 10 uM
[22] = molecular target: Receptor-type tyrosine-protein kinase FLT3 (Homo sapiens) (UniProt P36888); test: Inhibition of FLT3 at 10 uM
[23] = molecular target: Glycogen synthase kinase-3 beta (Homo sapiens) (UniProt P49841); test: Inhibition of GSK3B at 10 uM
[24] = molecular target: Insulin receptor (Homo sapiens) (UniProt P06213); test: Inhibition of INSR at 10 uM
[25] = molecular target: Tyrosine-protein kinase JAK1 (Homo sapiens) (UniProt P23458); test: Inhibition of JAK1 at 10 uM
[26] = molecular target: Tyrosine-protein kinase Lck (Homo sapiens) (UniProt P06239); test: Inhibition of LCK at 10 uM
[27] = molecular target: Leucine-rich repeat serine/threonine-protein kinase 2 (Homo sapiens) (UniProt Q5S007); test: Inhibition of LRRK2 at 10 uM
[28] = molecular target: T2, Mitogen-activated protein kinase 1; test: Inhibition of MAPK1 at 10 uM
[29] = molecular target: Serine/threonine-protein kinase MARK2 (Homo sapiens) (UniProt Q7KZI7); test: Inhibition of MARK2 at 10 uM
[30] = molecular target: Serine/threonine-protein kinase PAK 4 (Homo sapiens) (UniProt O96013); test: Inhibition of PAK4 at 10 uM
[31] = molecular target: Platelet-derived growth factor receptor alpha (Homo sapiens) (UniProt P16234); test: Inhibition of PDGFRA at 10 uM
[32] = molecular target: PI3-kinase p110-alpha/p85-alpha (Homo sapiens) (UniProt P27986+P42336); test: Inhibition of PIK3CA/PIK3R1 at 10 uM; assay type: protein-complex assay
[33] = molecular target: Serine/threonine-protein kinase PLK1 (Homo sapiens) (UniProt P53350); test: Inhibition of PLK1 at 10 uM
[34] = molecular target: Serine/threonine-protein kinase PLK2 (Homo sapiens) (UniProt Q9NYY3); test: Inhibition of PLK2 at 10 uM
[35] = molecular target: Serine/threonine-protein kinase PLK3 (Homo sapiens) (UniProt Q9H4B4); test: Inhibition of PLK3 at 10 uM
[36] = molecular target: cAMP-dependent protein kinase catalytic subunit alpha (Homo sapiens) (UniProt P17612); test: Inhibition of PRKACA at 10 uM
[37] = molecular target: Protein kinase C beta type (Homo sapiens) (UniProt P05771); test: Inhibition of PRKCB1 at 10 uM
[38] = molecular target: Protein-tyrosine kinase 2-beta (Homo sapiens) (UniProt Q14289); test: Inhibition of PTK2B at 10 uM
[39] = test system: RAF proto-oncogene serine/threonine-protein kinase (Homo sapiens), P04049 [Y340D,Y341D]; test: Inhibition of RAF1 Y340D, Y341D mutant at 10 uM
[40] = molecular target: Proto-oncogene tyrosine-protein kinase receptor Ret (Homo sapiens) (UniProt P07949); test: Inhibition of RET at 10 uM
[41] = molecular target: Receptor-interacting serine/threonine-protein kinase 2 (Homo sapiens) (UniProt O43353); test: Inhibition of RIPK2 at 10 uM
[42] = molecular target: Rho-associated protein kinase 2 (Homo sapiens) (UniProt O75116); test: Inhibition of ROCK2 at 10 uM
[43] = molecular target: Serine/threonine-protein kinase 16 (Homo sapiens) (UniProt O75716); test: Inhibition of STK16 at 10 uM
[44] = molecular target: Serine/threonine-protein kinase 3 (Homo sapiens) (UniProt Q13188); test: Inhibition of STK3 at 10 uM
[45] = molecular target: Tyrosine-protein kinase SYK (Homo sapiens) (UniProt P43405); test: Inhibition of SYK at 10 uM
[46] = molecular target: Dual specificity protein kinase TTK (Homo sapiens) (UniProt P33981); test: Inhibition of TTK at 10 uM
[47] = molecular target: T1, Mitogen-activated protein kinase 10; settings: 10 uM
Description: Inhibition of MAPK10 at 10 uM

T1 sequence (P53779 whole entry): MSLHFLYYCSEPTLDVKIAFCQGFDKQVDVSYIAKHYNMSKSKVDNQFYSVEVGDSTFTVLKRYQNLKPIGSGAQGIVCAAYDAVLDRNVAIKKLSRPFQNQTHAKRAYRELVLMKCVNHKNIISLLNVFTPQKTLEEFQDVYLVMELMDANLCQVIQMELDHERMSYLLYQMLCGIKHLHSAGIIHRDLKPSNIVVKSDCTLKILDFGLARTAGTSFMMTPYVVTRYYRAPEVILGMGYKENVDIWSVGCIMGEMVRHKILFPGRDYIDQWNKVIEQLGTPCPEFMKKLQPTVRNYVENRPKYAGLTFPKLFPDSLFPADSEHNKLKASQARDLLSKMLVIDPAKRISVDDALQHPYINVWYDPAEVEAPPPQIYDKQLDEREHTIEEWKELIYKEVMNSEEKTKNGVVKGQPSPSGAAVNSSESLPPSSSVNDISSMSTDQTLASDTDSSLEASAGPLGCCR
T2 sequence (P28482 whole entry): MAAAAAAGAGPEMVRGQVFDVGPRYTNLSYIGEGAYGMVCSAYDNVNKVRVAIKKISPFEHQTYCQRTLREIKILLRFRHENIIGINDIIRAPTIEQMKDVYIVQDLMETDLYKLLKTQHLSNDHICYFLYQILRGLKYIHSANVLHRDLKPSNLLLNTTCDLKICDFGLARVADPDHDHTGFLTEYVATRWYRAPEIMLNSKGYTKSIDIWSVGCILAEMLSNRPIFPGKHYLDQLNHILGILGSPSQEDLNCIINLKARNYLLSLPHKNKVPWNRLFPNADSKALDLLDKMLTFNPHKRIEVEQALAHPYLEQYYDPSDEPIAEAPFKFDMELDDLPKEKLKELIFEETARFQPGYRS
Sequence of Insulin receptor (Homo sapiens) (P06213 28-758 limits assumed): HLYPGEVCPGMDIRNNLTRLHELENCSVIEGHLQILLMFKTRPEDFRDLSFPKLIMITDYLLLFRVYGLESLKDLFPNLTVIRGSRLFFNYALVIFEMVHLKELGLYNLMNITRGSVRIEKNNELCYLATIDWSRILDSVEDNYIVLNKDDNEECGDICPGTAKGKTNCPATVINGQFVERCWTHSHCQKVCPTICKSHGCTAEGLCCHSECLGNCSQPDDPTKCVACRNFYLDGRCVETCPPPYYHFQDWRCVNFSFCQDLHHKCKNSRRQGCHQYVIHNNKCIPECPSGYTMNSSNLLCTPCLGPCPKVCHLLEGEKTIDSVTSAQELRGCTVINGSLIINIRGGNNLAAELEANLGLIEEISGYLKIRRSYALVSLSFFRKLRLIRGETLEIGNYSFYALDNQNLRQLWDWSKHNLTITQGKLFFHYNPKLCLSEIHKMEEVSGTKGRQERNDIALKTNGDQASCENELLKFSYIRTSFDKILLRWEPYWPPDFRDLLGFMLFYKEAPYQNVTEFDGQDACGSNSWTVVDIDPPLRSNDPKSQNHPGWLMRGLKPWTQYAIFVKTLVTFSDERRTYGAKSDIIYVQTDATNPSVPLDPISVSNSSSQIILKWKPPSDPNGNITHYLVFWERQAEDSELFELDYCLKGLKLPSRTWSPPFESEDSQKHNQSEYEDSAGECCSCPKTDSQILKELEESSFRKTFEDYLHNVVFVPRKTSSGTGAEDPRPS
Sequence of Insulin receptor (Homo sapiens) (P06213 763-1382 limits assumed): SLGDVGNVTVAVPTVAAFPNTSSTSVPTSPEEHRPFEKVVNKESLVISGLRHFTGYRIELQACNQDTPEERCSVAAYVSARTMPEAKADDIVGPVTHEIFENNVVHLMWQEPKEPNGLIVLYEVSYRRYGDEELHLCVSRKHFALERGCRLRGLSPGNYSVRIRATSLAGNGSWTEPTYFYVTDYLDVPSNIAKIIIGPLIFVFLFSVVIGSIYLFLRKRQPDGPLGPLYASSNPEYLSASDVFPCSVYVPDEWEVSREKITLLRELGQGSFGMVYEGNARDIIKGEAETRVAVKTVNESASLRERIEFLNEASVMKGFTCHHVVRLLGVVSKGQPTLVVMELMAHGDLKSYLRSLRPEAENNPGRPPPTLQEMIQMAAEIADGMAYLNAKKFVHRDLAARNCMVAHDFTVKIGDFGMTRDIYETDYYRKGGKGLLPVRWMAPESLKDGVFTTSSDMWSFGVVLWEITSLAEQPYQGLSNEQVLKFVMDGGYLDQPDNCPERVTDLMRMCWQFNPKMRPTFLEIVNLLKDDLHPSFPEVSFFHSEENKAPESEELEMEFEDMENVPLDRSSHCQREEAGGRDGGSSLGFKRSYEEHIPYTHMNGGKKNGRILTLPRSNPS
Sequence of Mitogen-activated protein kinase 14 (Q16539 whole entry): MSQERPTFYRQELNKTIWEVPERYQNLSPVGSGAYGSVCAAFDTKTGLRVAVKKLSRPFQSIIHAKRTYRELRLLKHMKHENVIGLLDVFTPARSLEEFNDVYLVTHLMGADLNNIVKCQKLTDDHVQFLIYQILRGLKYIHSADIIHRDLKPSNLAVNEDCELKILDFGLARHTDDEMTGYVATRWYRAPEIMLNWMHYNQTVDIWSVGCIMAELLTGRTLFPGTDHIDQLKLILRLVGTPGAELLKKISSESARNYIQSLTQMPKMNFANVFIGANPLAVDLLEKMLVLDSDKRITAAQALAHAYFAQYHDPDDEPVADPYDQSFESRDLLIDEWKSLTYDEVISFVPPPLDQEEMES
Sequence of Serine/threonine-protein kinase MARK2 (Homo sapiens) (Q7KZI7 whole entry): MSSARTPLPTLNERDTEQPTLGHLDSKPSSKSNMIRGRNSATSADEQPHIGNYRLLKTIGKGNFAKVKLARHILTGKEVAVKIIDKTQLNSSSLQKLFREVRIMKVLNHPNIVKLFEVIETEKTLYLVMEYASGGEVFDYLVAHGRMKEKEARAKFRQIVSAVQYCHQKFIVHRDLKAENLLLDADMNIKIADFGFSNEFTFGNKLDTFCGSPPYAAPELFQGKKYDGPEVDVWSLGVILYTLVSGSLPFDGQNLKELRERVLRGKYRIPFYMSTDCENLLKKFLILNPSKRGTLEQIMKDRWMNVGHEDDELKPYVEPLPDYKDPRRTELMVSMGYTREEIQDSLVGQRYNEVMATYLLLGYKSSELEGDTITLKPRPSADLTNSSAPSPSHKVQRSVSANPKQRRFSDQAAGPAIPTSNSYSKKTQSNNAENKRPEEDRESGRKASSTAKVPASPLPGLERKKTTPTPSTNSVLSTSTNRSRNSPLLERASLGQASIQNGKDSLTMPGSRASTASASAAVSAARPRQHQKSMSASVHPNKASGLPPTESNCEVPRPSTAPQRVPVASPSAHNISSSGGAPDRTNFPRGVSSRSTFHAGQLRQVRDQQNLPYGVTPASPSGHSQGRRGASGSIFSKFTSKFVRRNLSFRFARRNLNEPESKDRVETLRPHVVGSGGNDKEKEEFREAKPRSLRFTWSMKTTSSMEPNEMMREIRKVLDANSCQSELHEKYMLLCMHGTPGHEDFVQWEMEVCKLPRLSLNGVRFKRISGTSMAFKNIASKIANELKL
Sequence of Macrophage colony-stimulating factor 1 receptor (Homo sapiens) (P07333 whole entry): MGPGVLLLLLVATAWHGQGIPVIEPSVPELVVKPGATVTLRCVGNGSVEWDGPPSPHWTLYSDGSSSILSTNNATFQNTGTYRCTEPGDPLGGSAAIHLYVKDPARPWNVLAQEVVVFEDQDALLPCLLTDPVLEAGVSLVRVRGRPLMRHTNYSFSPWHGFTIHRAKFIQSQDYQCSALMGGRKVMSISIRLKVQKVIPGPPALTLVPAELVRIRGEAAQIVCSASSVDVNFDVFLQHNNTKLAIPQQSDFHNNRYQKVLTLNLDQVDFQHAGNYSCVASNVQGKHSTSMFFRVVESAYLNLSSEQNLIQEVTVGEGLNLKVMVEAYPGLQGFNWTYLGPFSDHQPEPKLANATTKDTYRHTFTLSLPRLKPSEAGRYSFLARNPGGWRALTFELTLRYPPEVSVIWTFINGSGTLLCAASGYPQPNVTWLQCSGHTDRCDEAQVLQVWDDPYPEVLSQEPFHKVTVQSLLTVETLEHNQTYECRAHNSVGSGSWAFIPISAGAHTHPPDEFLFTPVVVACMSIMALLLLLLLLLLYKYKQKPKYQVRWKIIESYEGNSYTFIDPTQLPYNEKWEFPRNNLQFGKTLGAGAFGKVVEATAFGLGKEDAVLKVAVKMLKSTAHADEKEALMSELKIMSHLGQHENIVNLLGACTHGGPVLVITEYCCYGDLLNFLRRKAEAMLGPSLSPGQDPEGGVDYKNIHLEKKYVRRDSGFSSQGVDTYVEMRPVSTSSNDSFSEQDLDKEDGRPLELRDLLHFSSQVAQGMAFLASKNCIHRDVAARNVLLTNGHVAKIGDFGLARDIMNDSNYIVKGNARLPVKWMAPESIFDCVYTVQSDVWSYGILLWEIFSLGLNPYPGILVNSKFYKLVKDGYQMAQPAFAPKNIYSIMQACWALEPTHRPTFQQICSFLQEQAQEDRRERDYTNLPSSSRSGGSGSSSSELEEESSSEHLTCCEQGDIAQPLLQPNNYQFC
Sequence of Serine/threonine-protein kinase Chk1 (Homo sapiens) (O14757 whole entry): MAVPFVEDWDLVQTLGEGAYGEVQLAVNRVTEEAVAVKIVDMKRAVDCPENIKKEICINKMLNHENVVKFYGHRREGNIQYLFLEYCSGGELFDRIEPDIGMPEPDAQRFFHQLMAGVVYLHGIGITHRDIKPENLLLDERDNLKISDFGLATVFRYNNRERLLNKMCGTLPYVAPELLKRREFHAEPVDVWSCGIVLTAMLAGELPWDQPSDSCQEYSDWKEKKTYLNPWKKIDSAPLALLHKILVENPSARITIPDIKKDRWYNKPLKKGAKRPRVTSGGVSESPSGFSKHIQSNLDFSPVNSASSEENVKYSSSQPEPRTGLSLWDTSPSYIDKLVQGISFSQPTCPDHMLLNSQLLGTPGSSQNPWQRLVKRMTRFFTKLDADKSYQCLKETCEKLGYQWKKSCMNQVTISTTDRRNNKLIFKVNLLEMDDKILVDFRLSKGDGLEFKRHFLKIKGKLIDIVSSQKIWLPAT

In the case of O=C(Cc1cccc2cnccc12)Nc1scc(Cl)c1-c1ncn[nH]1, the pIC50 [1] was 7.96, the pIC50 [2] was 7.37 and the pIC50 [3] was 7.85. The pIC50 [4] was less than 4.30, the pIC50 [5] was less than 4.30 and the Papp A→B (MDR1 [6]) was 27 ×10⁻⁶ cm/s. For the same compound, the efflux ratio (MDR1 [7]) was 1.6, the remaining at 2 h, 5 µM [8] was 29% and the remaining at 2 h, 5 µM [9] was 50%. The inhibition in vivo at 300 mg/kg (Mus musculus) was 51%, the inhibition [10] was 19% and the inhibition [11] was 19%. It also gave an inhibition [12] of 14%, an inhibition [13] of 6% and an inhibition [14] of 31%. The inhibition [15] was 4%, the inhibition [16] was 2% and the inhibition [17] was 5%. It also gave an inhibition [18] of 7%, an inhibition [19] of 5% and an inhibition [20] of 29%. It also gave an inhibition [21] of -1%, an inhibition [22] of 12% and an inhibition [23] of 25%. It also gave an inhibition [24] of -2%, an inhibition [25] of 1% and an inhibition [26] of 11%. The inhibition [27] was 15%, the inhibition [28] was 3% and the inhibition [29] was 9%. For the same compound, the inhibition [30] was 1%, the inhibition [31] was 2% and the inhibition [32] was 13%. It also gave an inhibition [33] of 5%, an inhibition [34] of 1% and an inhibition [35] of -1%. For the same compound, the inhibition [36] was 3%, the inhibition [37] was 3% and the inhibition [38] was -5%. For the same compound, the inhibition [39] was 19%, the inhibition [40] was 16% and the inhibition [41] was 13%. It also gave an inhibition [42] of 9%, an inhibition [43] of 29% and an inhibition [44] of 3%. For the same compound, the inhibition [45] was 19%, the inhibition [46] was greater than 50% and the inhibition [47] was 96%.

Source: ChEMBL document CHEMBL1681717, “Design and synthesis of a novel, orally active, brain penetrant, tri-substituted thiophene based JNK inhibitor” (Bioorg Med Chem Lett, 2011)
